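96-well plates; 48 h exposure; 5 concentrations. Endpoints by linear interpolation between flanking doses. Not reached: highest tested concentration assigned. Abbreviation: GI50, concentration required for 50% inhibition of growth. TGI is the concentration that stops growth completely.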
Experiments:
Experiment in all cases: NCI tumour cell line growth inhibition, 48 h
NCI-H460 lung = system: NCI-H460 lung
OVCAR-4 ovarian = system: OVCAR-4 ovarian
RXF 393 renal = system: RXF 393 renal
HCC-2998 colon = system: HCC-2998 colon
CCRF-CEM leukemia = system: CCRF-CEM leukemia
SNB-19 CNS = system: SNB-19 CNS
ACHN renal = system: ACHN renal
MALME-3M melanoma = system: MALME-3M melanoma
K-562 leukemia = system: K-562 leukemia
SR leukemia = system: SR leukemia
NCI-H522 lung = system: NCI-H522 lung
SK-MEL-5 melanoma = system: SK-MEL-5 melanoma
NCI-H226 lung = system: NCI-H226 lung
HCT-15 colon = system: HCT-15 colon
HCT-116 colon = system: HCT-116 colon
MDA-MB-231 breast = system: MDA-MB-231 breast
UACC-62 melanoma = system: UACC-62 melanoma
A498 renal = system: A498 renal
COLO 205 colon = system: COLO 205 colon
HS 578T breast = system: HS 578T breast
SF-539 CNS = system: SF-539 CNS
OVCAR-5 ovarian = system: OVCAR-5 ovarian
MCF7 breast = system: MCF7 breast
KM12 colon = system: KM12 colon
UACC-257 melanoma = system: UACC-257 melanoma
T-47D breast = system: T-47D breast
CAKI-1 renal = system: CAKI-1 renal
LOX IMVI melanoma = system: LOX IMVI melanoma
SK-OV-3 ovarian = system: SK-OV-3 ovarian
A549 NSCLC = system: A549 NSCLC
NCI/ADR-RES ovarian = system: NCI/ADR-RES ovarian
786-0 renal = system: 786-0 renal
SF-295 CNS = system: SF-295 CNS
HL-60(TB) leukemia = system: HL-60(TB) leukemia
MDA-MB-435 = system: MDA-MB-435
HOP-62 NSCLC = system: HOP-62 NSCLC
HOP-92 NSCLC = system: HOP-92 NSCLC
OVCAR-3 ovarian = system: OVCAR-3 ovarian
U251 CNS = system: U251 CNS
SF-268 CNS = system: SF-268 CNS
EKVX NSCLC = system: EKVX NSCLC
UO-31 renal = system: UO-31 renal
SK-MEL-2 melanoma = system: SK-MEL-2 melanoma
DU-145 prostate = system: DU-145 prostate
RPMI-8226 leukemia = system: RPMI-8226 leukemia
SNB-75 CNS = system: SNB-75 CNS
IGROV1 ovarian = system: IGROV1 ovarian
PC-3 prostate = system: PC-3 prostate
TK-10 renal = system: TK-10 renal
SK-MEL-28 melanoma = system: SK-MEL-28 melanoma
SN12C renal = system: SN12C renal
OVCAR-8 ovarian = system: OVCAR-8 ovarian
HT29 colon = system: HT29 colon
SW-620 colon = system: SW-620 colon
BT-549 breast = system: BT-549 breast
MOLT-4 leukemia = system: MOLT-4 leukemia
M14 melanoma = system: M14 melanoma

SMILES: CNC(=O)c1cc(-n2ccc3cc(NC(=O)Nc4ccc(N5CCOCC5)c(C(F)(F)F)c4)ccc32)ccn1
- GI50 (NCI-H460 lung): 4.39 µM
- TGI (NCI-H460 lung): > 33.3 µM
- GI50 (OVCAR-4 ovarian): 7.76 µM
- TGI (OVCAR-4 ovarian): > 33.3 µM
- GI50 (RXF 393 renal): 0.595 µM
- TGI (RXF 393 renal): 1.62 µM
- GI50 (HCC-2998 colon): 11.5 µM
- TGI (HCC-2998 colon): > 33.3 µM
- GI50 (CCRF-CEM leukemia): 1.53 µM
- TGI (CCRF-CEM leukemia): > 33.3 µM
- GI50 (SNB-19 CNS): 15 µM
- TGI (SNB-19 CNS): > 33.3 µM
- GI50 (ACHN renal): 5.69 µM
- TGI (ACHN renal): > 33.3 µM
- GI50 (MALME-3M melanoma): 3.89 µM
- TGI (MALME-3M melanoma): > 33.3 µM
- GI50 (K-562 leukemia): 1.24 µM
- TGI (K-562 leukemia): > 33.3 µM
- GI50 (SR leukemia): 1.88 µM
- TGI (SR leukemia): > 33.3 µM
- GI50 (NCI-H522 lung): 2.9 µM
- TGI (NCI-H522 lung): > 33.3 µM
- GI50 (SK-MEL-5 melanoma): 1.32 µM
- TGI (SK-MEL-5 melanoma): 7.58 µM
- GI50 (NCI-H226 lung): 3.69 µM
- TGI (NCI-H226 lung): > 33.3 µM
- GI50 (HCT-15 colon): 1.93 µM
- TGI (HCT-15 colon): > 33.3 µM
- GI50 (HCT-116 colon): 2.09 µM
- TGI (HCT-116 colon): > 33.3 µM
- GI50 (MDA-MB-231 breast): 17.9 µM
- TGI (MDA-MB-231 breast): > 33.3 µM
- GI50 (UACC-62 melanoma): 1.27 µM
- TGI (UACC-62 melanoma): 14.7 µM
- GI50 (A498 renal): > 33.3 µM
- TGI (A498 renal): > 33.3 µM
- GI50 (COLO 205 colon): 2.09 µM
- TGI (COLO 205 colon): > 33.3 µM
- GI50 (HS 578T breast): 1.85 µM
- TGI (HS 578T breast): > 33.3 µM
- GI50 (SF-539 CNS): 1.41 µM
- TGI (SF-539 CNS): > 33.3 µM
- GI50 (OVCAR-5 ovarian): 14.6 µM
- TGI (OVCAR-5 ovarian): > 33.3 µM
- GI50 (MCF7 breast): 1.7 µM
- TGI (MCF7 breast): > 33.3 µM
- GI50 (KM12 colon): 0.159 µM
- TGI (KM12 colon): > 33.3 µM
- GI50 (UACC-257 melanoma): 8.89 µM
- TGI (UACC-257 melanoma): > 33.3 µM
- GI50 (T-47D breast): 0.907 µM
- TGI (T-47D breast): 15.5 µM
- GI50 (CAKI-1 renal): 10 µM
- TGI (CAKI-1 renal): > 33.3 µM
- GI50 (LOX IMVI melanoma): 0.251 µM
- TGI (LOX IMVI melanoma): > 33.3 µM
- GI50 (SK-OV-3 ovarian): 26.7 µM
- TGI (SK-OV-3 ovarian): > 33.3 µM
- GI50 (A549 NSCLC): 5.15 µM
- TGI (A549 NSCLC): > 33.3 µM
- GI50 (NCI/ADR-RES ovarian): 7.51 µM
- TGI (NCI/ADR-RES ovarian): > 33.3 µM
- GI50 (786-0 renal): 2.89 µM
- TGI (786-0 renal): > 33.3 µM
- GI50 (SF-295 CNS): 0.938 µM
- TGI (SF-295 CNS): 3.24 µM
- GI50 (HL-60(TB) leukemia): 1.62 µM
- TGI (HL-60(TB) leukemia): > 33.3 µM
- GI50 (MDA-MB-435): 5.73 µM
- TGI (MDA-MB-435): > 33.3 µM
- GI50 (HOP-62 NSCLC): 1.52 µM
- TGI (HOP-62 NSCLC): 14.6 µM
- GI50 (HOP-92 NSCLC): 2.11 µM
- TGI (HOP-92 NSCLC): > 33.3 µM
- GI50 (OVCAR-3 ovarian): 6.48 µM
- TGI (OVCAR-3 ovarian): > 33.3 µM
- GI50 (U251 CNS): 3.23 µM
- TGI (U251 CNS): > 33.3 µM
- GI50 (SF-268 CNS): 27.2 µM
- TGI (SF-268 CNS): > 33.3 µM
- GI50 (EKVX NSCLC): > 33.3 µM
- TGI (EKVX NSCLC): > 33.3 µM
- GI50 (UO-31 renal): 3.55 µM
- TGI (UO-31 renal): > 33.3 µM
- GI50 (SK-MEL-2 melanoma): 11.3 µM
- TGI (SK-MEL-2 melanoma): > 33.3 µM
- GI50 (DU-145 prostate): 10.4 µM
- TGI (DU-145 prostate): > 33.3 µM
- GI50 (RPMI-8226 leukemia): 1.04 µM
- TGI (RPMI-8226 leukemia): 3.11 µM
- GI50 (SNB-75 CNS): 6.38 µM
- TGI (SNB-75 CNS): > 33.3 µM
- GI50 (IGROV1 ovarian): 3.87 µM
- TGI (IGROV1 ovarian): > 33.3 µM
- GI50 (PC-3 prostate): 1.31 µM
- TGI (PC-3 prostate): > 33.3 µM
- GI50 (TK-10 renal): 27.6 µM
- TGI (TK-10 renal): > 33.3 µM
- GI50 (SK-MEL-28 melanoma): 11.7 µM
- TGI (SK-MEL-28 melanoma): > 33.3 µM
- GI50 (SN12C renal): 9.21 µM
- TGI (SN12C renal): > 33.3 µM
- GI50 (OVCAR-8 ovarian): 4.5 µM
- TGI (OVCAR-8 ovarian): > 33.3 µM
- GI50 (HT29 colon): 2.01 µM
- TGI (HT29 colon): > 33.3 µM
- GI50 (SW-620 colon): 8.36 µM
- TGI (SW-620 colon): > 33.3 µM
- GI50 (BT-549 breast): 1.27 µM
- TGI (BT-549 breast): 8.9 µM
- GI50 (MOLT-4 leukemia): 1.93 µM
- TGI (MOLT-4 leukemia): > 33.3 µM
- GI50 (M14 melanoma): 3.11 µM
- TGI (M14 melanoma): > 33.3 µM
